The term EC50 denotes the concentration giving half of the maximal effect.

In patent publication US11261186B2, “Biaryl derivative as GPR120 agonist” (LG CHEM, LTD., priority 2014, dated 2022) one finds EC50 data, which are given here for 38 molecules.

The target of the assay is T1, hGPR120 (Homo sapiens, UniProt Q5NUL3).
T1 construct: expressed in transfected cells; host or cells: CHO-K1
T1 sequence (Q5NUL3 1-361): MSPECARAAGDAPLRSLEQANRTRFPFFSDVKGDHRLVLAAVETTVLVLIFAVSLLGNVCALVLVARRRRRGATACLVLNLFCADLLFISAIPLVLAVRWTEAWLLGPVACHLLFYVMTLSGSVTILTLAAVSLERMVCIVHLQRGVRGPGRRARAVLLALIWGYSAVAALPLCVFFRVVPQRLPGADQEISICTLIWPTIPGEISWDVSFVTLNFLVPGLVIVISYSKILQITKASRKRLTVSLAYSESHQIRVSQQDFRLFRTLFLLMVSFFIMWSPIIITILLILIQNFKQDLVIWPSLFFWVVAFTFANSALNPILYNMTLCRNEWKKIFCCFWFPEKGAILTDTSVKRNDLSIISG
Description: Measurement of Activity of GPR120 Agonist (Cell-Based Assay), Calcium 5 dye fluorescence. The note with it: CHO-K1 cells expressing Ga16 and hGPR120. In a few lines: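 After an 18 h incubation at 37 °C, the transfected CHO-K1 cells (Gα16, hGPR120) received Calcium 5 dye for 1 h; compound dilutions in 0.5% DMSO were then injected and emission at 525 nm recorded, with values given as % of the vehicle response.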

Each structure is given as a SMILES string. Some results are limits rather than exact numbers.

Take `O=C(O)CCCOc1ccc(-c2cccnc2OC2CCC2)cc1F` [Example 233, 4-[4-(2-cyclobutoxy-pyridin-3-yl)-2-fluoro-phenoxy]-butyric acid]: the EC50 lay within 200 to 2000 nM. With `O=C(O)CCCOc1ccc(-c2cccnc2OC2CCCC2)cc1F` [Example 234, 4-[4-(2-cyclopentyloxy-pyridin-3-yl)-2-fluoro-phenoxy]-butyric acid] the figure was less than 200 nM.

For the molecule `O=C(O)CCCOc1ccc(-c2cccnc2SC2CCC2)cc1F` [Example 235, 4-[4-(2-cyclobutylsulfanyl-pyridin-3-yl)-2-fluoro-phenoxy]-butyric acid], the EC50 was less than 200 nM. With `O=C(O)CCCOc1ccc(-c2cccnc2SC2CCCC2)cc1F` [Example 236, 4-[4-(2-cyclopentylsulfanyl-pyridin-3-yl)-2-fluoro-phenoxy]-butyric acid] the figure was less than 200 nM; with `CC(CCCCC(=O)O)c1c(F)cc(-c2cccnc2OC2CCCC2)cc1F` (centres unmarked) [Example 237, 6-[4-(2-cyclopentyloxy-pyridin-3-yl)-2,6-difluoro-phenyl]-heptanoic acid], less than 200 nM. As for `CC(CCCCC(=O)O)c1c(F)cc(-c2cccnc2SC2CCCC2)cc1F` (centres unmarked) [Example 238, 6-[4-(2-cyclopentylsulfanyl-pyridin-3-yl)-2,6-difluoro-phenyl]-heptanoic acid], the EC50 was less than 200 nM. In the case of `O=C(O)CCCSc1ccc(-c2cccnc2OCC2CC2)cc1F` [Example 239, 4-[4-(2-cyclopropylmethoxy-pyridin-3-yl)-2-fluoro-phenylsulfanyl]-butyric acid], the EC50 was less than 200 nM.

For the molecule `O=C(O)CCCOc1ccc(-c2cccnc2OCC2CC2)cc1F` [Example 240, 4-[4-(2-cyclopropylmethoxy-pyridin-3-yl)-2-fluoro-phenoxy]-butyric acid], the EC50 was 200 to 2000 nM. The result for `O=C(O)CCCOc1ccc(-c2cccnc2OCC2CCC2)cc1F` [Example 241, 4-[4-(2-cyclobutylmethoxy-pyridin-3-yl)-2-fluoro-phenoxy]-butyric acid] reads less than 200 nM; that for `O=C(O)CCCCc1ccc(-c2cccnc2OC2CCCC2)cc1F` [Example 244, 5-[4-(2-cyclopentyloxy-pyridin-3-yl)-2-fluoro-phenyl]-pentanoic acid], less than 200 nM. The result for `O=C(O)CCCCc1ccc(-c2cccnc2OC2CCC2)cc1F` [Example 245, 5-[4-(2-cyclobutoxy-pyridin-3-yl)-2-fluoro-phenyl]-pentanoic acid] reads less than 200 nM; that for `O=C(O)CCCCc1ccc(-c2cccnc2OCC2CCC2)cc1F` [Example 246, 5-[4-(2-cyclobutylmethoxy-pyridin-3-yl)-2-fluoro-phenyl]-pentanoic acid], less than 200 nM.

Turning to `O=C(O)CCCCc1ccc(-c2cccnc2OCC2CC2)cc1F` [Example 247, 5-[4-(2-cyclopropylmethoxy-pyridin-3-yl)-2-fluoro-phenyl]-pentanoic acid], the EC50 is less than 200 nM. For `O=C(O)CCCCc1ccc(-c2cccnc2SC2CCCC2)cc1F` [Example 248, 5-[4-(2-cyclopentylsulfanyl-pyridin-3-yl)-2-fluoro-phenyl]-pentanoic acid], the EC50 is less than 200 nM. Take `O=C(O)CCCCc1ccc(-c2cccnc2SC2CCC2)cc1F` [Example 249, 5-[4-(2-cyclobutylsulfanyl-pyridin-3-yl)-2-fluoro-phenyl]-pentanoic acid]: the EC50 was less than 200 nM. For the molecule `O=C(O)CCCCc1c(F)cc(-c2cccnc2OCC2CCC2)cc1F` [Example 250, 5-[4-(2-cyclobutylmethoxy-pyridin-3-yl)-2,6-difluoro-phenyl]-pentanoic acid], the half-maximal effective concentration (EC50) was less than 200 nM. With `O=C(O)CCCCc1c(F)cc(-c2cccnc2OC2CCC2)cc1F` [Example 251, 5-[4-(2-cyclobutoxy-pyridin-3-yl)-2,6-difluoro-phenyl]-pentanoic acid] the figure was less than 200 nM.

On to `O=C(O)CCCCc1c(F)cc(-c2cccnc2OCC2CC2)cc1F` [Example 252, 5-[4-(2-cyclopropylmethoxy-pyridin-3-yl)-2,6-difluoro-phenyl]-pentanoic acid], for which the concentration giving a half-maximal response (EC50) was less than 200 nM. The result for `CC1(C)Cc2cc(Cl)cc(-c3cc(F)c(OCCCC(=O)O)c(F)c3)c2O1` [Example 253, 4-[4-(5-chloro-2,2-dimethyl-2,3-dihydro-benzofuran-7-yl)-2,6-difluoro-phenoxy]-butyric acid] reads 200 to 2000 nM; that for `CC1(C)Cc2cc(Cl)cc(-c3cc(F)c(SCCCC(=O)O)c(F)c3)c2O1` [Example 254, 4-[4-(5-chloro-2,2-dimethyl-2,3-dihydro-benzofuran-7-yl)-2,6-difluoro-phenylsulfanyl]-butyric acid], 200 to 2000 nM; that for `CN(CCCC(=O)O)c1c(F)cc(-c2cc(Cl)cc3c2OC(C)(C)C3)cc1F` [Example 255, 4-{[4-(5-chloro-2,2-dimethyl-2,3-dihydro-benzofuran-7-yl)-2,6-difluoro-phenyl]-methyl-amino}-butyric acid], less than 200 nM. On to `CC(CCCC(=O)O)c1c(F)cc(-c2cc(Cl)cc3c2OC(C)(C)C3)cc1F` (centres unmarked) [Example 256, 5-[4-(5-chloro-2,2-dimethyl-2,3-dihydro-benzofuran-7-yl)-2,6-difluoro-phenyl]-hexanoic acid], for which the EC50 lay within 200 to 2000 nM.

As for `COc1ccc(-c2cc(F)c(OCCCC(=O)O)c(F)c2)c2c1OC(C)(C)C2` [Example 257, 4-[2,6-difluoro-4-(7-methoxy-2,2-dimethyl-2,3-dihydro-benzofuran-4-yl)-phenoxy]-butyric acid], the EC50 is less than 200 nM. The result for `COc1ccc(-c2cc(F)c(SCCCC(=O)O)c(F)c2)c2c1OC(C)(C)C2` [Example 258, 4-[2,6-difluoro-4-(7-methoxy-2,2-dimethyl-2,3-dihydro-benzofuran-4-yl)-phenylsulfanyl]-butyric acid] reads less than 200 nM; that for `COc1ccc(-c2cc(F)c(N(C)CCCC(=O)O)c(F)c2)c2c1OC(C)(C)C2` [Example 259, 4-{[2,6-difluoro-4-(7-methoxy-2,2-dimethyl-2,3-dihydro-benzofuran-4-yl)-phenyl]-methyl-amino}-butyric acid], less than 200 nM.

For the molecule `COc1ccc(-c2cc(F)c(C(C)CCCC(=O)O)c(F)c2)c2c1OC(C)(C)C2` (centres unmarked) [Example 260], the EC50 is less than 200 nM. With `O=C(O)CCCOc1c(F)cc(-c2cccc3c2OC2(CCCC2)C3)cc1F` [Example 261, 4-(2,6-difluoro-4-spiro[3H-benzofuran-2,1′-cyclopentan]-7-yl-phenoxy)-butyric acid] the figure was less than 200 nM; with `O=C(O)CCCSc1c(F)cc(-c2cccc3c2OC2(CCCC2)C3)cc1F` [Example 262, 4-(2,6-difluoro-4-spiro[3H-benzofuran-2,1′-cyclopentan]-7-yl-phenylsulfanyl)-butyric acid], less than 200 nM; with `CN(CCCC(=O)O)c1c(F)cc(-c2cccc3c2OC2(CCCC2)C3)cc1F` [Example 263, 4-(2,6-difluoro-N-methyl-4-spiro[3H-benzofuran-2,1′-cyclopentan]-7-yl-anilino)-butyric acid], less than 200 nM. The result for `CC(CCCC(=O)O)c1c(F)cc(-c2cccc3c2OC2(CCCC2)C3)cc1F` (centres unmarked) [Example 264, 5-(2,6-difluoro-4-spiro[3H-benzofuran-2,1′-cyclopentan]-7-yl-phenyl)-hexanoic acid] reads 200 to 2000 nM.

Turning to `COC(=O)N1c2c(cc(F)cc2-c2cc(F)c(OCCCC(=O)O)c(F)c2)CC1(C)C` [Example 265, 7-[4-(3-carboxy-propoxy)-3,5-difluoro-phenyl]-5-fluoro-2,2-dimethyl-2,3-dihydro-indol-1-carboxylic acid methyl ester], the EC50 lay in the range of 200 to 2000 nM.

Regarding `CC1(C)Cc2cc(F)cc(-c3cc(F)c(OCCCC(=O)O)c(F)c3)c2N1` [Example 266, 4-[2,6-difluoro-4-(5-fluoro-2,2-dimethyl-2,3-dihydro-1H-indol-7-yl)-phenoxy]-butyric acid], the EC50 lay in the range of 200 to 2000 nM. The result for `CC1(C)Cc2c(ccc(F)c2-c2cc(F)c(OCCCC(=O)O)c(F)c2)N1` [Example 268, 4-[2,6-difluoro-4-(5-fluoro-2,2-dimethyl-2,3-dihydro-1H-indol-4-yl)-phenoxy]-butyric acid] reads 200 to 2000 nM; that for `CC(C)Sc1ncccc1-c1ccc2c(c1)CCC(CCC(=O)O)S2` (centres unmarked) [Example 270, 3-[6-(2-isopropylsulfanyl-pyridin-3-yl)-thiochroman-2-yl]-propionic acid], less than 200 nM. The result for `O=C(O)CCC1CCc2cc(-c3cccnc3OC3CCCC3)ccc2S1` (centres unmarked) [Example 271, 3-[6-(2-cyclopentoxy-pyridin-3-yl)-thiochroman-2-yl]-propionic acid] reads less than 200 nM. The result for `O=C(O)CCC1CCc2cc(-c3cccnc3SC3CCC3)ccc2O1` (centres unmarked) [Example 272, 3-[6-(2-cyclobutylsulfanyl-pyridin-3-yl)-chroman-2-yl]-propionic acid] reads less than 200 nM; that for `COc1ccc(-c2ccc3c(c2)CCC(CCC(=O)O)O3)c2c1OC(C)(C)C2` (centres unmarked) [Example 273, 3-[6-(7-methoxy-2,2-dimethyl-2,3-dihydro-benzofuran-4-yl)-chroman-2-yl]-propionic acid], 2000 to 20000 nM; that for `COc1ccc(-c2ccc3c(c2)CCC(CCC(=O)O)S3)c2c1OC(C)(C)C2` (centres unmarked) [Example 274, 3-[6-(7-methoxy-2,2-dimethyl-2,3-dihydro-benzofuran-4-yl)-thiochroman-2-yl]-propionic acid], 200 to 2000 nM.
